# US20170107229A1, “SUBSTITUTED TETRAHYDROPYRIDOTHIENOPYRIMIDINES” (BAYER PHARMA AKTIENGESELLSCHAFT, priority 2014, published 2017)
# Target: T1, human full-length MKNK1 (Homo sapiens, UniProt Q9BUB5, T385D)
# T1 construct: GST (N); purchased Carna Biosciences 02-145; host or cells: insect cells (baculovirus expression system)
# Assay: MKNK1 kinase high ATP assay (TR-FRET)
# Assay type: biochemical
# Settings: high ATP (2 mM final), 15 min preincubation with enzyme, GST-MKNK1 (T344D)
# Procedure, shortened: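 GST-tagged human full-length MKNK1 (T344D), insect-cell expressed, preincubated 15 min at 22 °C with compound, then reacted 30 min at 22 °C with 2 mM ATP and 0.06 μM biotinylated peptide (final) in HEPES pH 7.5. Phospho-peptide detected by TR-FRET (665/620 nm ratio) after EDTA stop; normalised to no-inhibitor and no-enzyme controls.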
# T1 sequence (Q9BUB5 1-424 isoform Q9BUB5-2 T344D): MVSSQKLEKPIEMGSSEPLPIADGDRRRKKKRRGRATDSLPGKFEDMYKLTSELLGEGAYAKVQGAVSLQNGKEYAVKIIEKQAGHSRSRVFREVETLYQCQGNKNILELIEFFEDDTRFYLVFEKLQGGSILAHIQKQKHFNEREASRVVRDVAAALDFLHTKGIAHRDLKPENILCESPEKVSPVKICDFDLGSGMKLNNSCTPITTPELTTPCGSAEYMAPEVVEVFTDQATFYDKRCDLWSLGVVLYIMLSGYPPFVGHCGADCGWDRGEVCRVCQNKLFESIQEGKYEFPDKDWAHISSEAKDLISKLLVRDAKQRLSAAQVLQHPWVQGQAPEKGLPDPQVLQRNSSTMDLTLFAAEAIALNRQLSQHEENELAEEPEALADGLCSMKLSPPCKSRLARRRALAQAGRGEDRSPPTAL
row,Structure (SMILES),IC50 [nM]
1,"CN1CCC(C(=O)N2CCc3c(sc4ncnc(Nc5ccc6[nH]c(=O)sc6c5)c34)C2)CC1 [Example 66, 6-({7-[(1-Methylpiperidin-4-yl)carbonyl]-5,6,7,8-tetrahydropyrido[4′,3′:4,5]thieno[2,3-d]pyrimidin-4-yl}amino)-1,3-benzothiazol-2(3H)-one]",90
2,"COc1cc2[nH]ncc2cc1Nc1ncnc2sc3c(c12)CCN(C(=O)C1CCN(C)CC1)C3 [Example 68, {4-[(6-Methoxy-1H-indazol-5-yl)amino]-5,8-dihydropyrido[4′,3′:4,5]thieno[2,3-d]pyrimidin-7(6H)-yl}(1-methylpiperidin-4-yl)methanone]",9
3,"CN1CCC(C(=O)N2CCc3c(sc4ncnc(Nc5ccc6[nH]ncc6c5)c34)C2)CC1 [Example 69, [4-(1H-Indazol-5-ylamino)-5,8-dihydropyrido[4′,3′:4,5]thieno[2,3-d]pyrimidin-7(6H)-yl](1-methylpiperidin-4-yl)methanone]",16
4,"COc1cc2[nH]ncc2cc1Nc1ncnc2sc3c(c12)CCN(CCC(=O)N(C)C)C3 [Example 71, 3-{4-[(6-Methoxy-1H-indazol-5-yl)amino]-5,8-dihydropyrido[4′,3′:4,5]thieno[2,3-d]pyrimidin-7(6H)-yl}-N,N-dimethylpropanamide]",19
5,"COc1cc2[nH]ncc2cc1Nc1ncnc2sc3c(c12)CCN(C(=O)c1cccn1C)C3 [Example 73, {4-[(6-Methoxy-1H-indazol-5-yl)amino]-5,8-dihydropyrido[4′,3′:4,5]thieno[2,3-d]pyrimidin-7(6H)-yl}(1-methyl-1H-pyrrol-2-yl)methanone]",7
6,"CSc1cc2[nH]ncc2cc1Nc1ncnc2sc3c(c12)CCN(C(=O)C1CCN(C)CC1)C3 [Example 74, (1-Methylpiperidin-4-yl)[4-{[6-(methylsulfanyl)-1H-indazol-5-yl]amino}-5,8-dihydropyrido[4′,3′:4,5]thieno[2,3-d]pyrimidin-7(6H)-yl]methanone]",4
7,"CN1CCC(C(=O)N2CCc3c(sc4ncnc(Nc5cc6cn[nH]c6cn5)c34)C2)CC1 [Example 77, (1-Methylpiperidin-4-yl)[4-(1H-pyrazolo[3,4-c]pyridin-5-ylamino)-5,8-dihydropyrido[4′,3′:4,5]thieno[2,3-d]pyrimidin-7(6H)-yl]methanone]",28
8,"CN1CCC(C(=O)N2CCc3c(sc4ncnc(Nc5ccn6nccc6c5)c34)C2)CC1 [Example 79, (1-Methylpiperidin-4-yl)[4-(pyrazolo[1,5-a]pyridin-5-ylamino)-5,8-dihydropyrido[4′,3′:4,5]thieno[2,3-d]pyrimidin-7(6H)-yl]methanone]",188
9,"COc1cc2[nH]ncc2cc1Nc1ncnc2sc3c(c12)CCN(Cc1ncon1)C3 [Example 80, N-(6-Methoxy-1H-indazol-5-yl)-7-(1,2,4-oxadiazol-3-ylmethyl)-5,6,7,8-tetrahydropyrido[4′,3′:4,5]thieno[2,3-d]pyrimidin-4-amine]",17
10,"COc1cc2[nH]ncc2cc1Nc1ncnc2sc3c(c12)CCN(C(=O)c1cocn1)C3 [Example 81, {4-[(6-Methoxy-1H-indazol-5-yl)amino]-5,8-dihydropyrido[4′,3′:4,5]thieno[2,3-d]pyrimidin-7(6H)-yl}(1,3-oxazol-4-yl)methanone]",5
11,"COc1cc2[nH]ncc2cc1NCCN(C)C(=O)N1CCc2c(sc3ncnc(Nc4cc5cn[nH]c5cc4OC)c23)C1 [Example 82, 4-[(6-Methoxy-1H-indazol-5-yl)amino]-N-{2-[(6-methoxy-1H-indazol-5-yl)amino]ethyl}-N-methyl-5,8-dihydropyrido[4′,3′:4,5]thieno[2,3-d]pyrimidine-7(6H)-carboxamide]",48
12,"COc1cc2[nH]ncc2cc1Nc1ncnc2sc3c(c12)CCN(CCN1CCCC1=O)C3 [Example 85, 1-(2-{4-[(6-Methoxy-1H-indazol-5-yl)amino]-5,8-dihydropyrido[4′,3′:4,5]thieno[2,3-d]pyrimidin-7(6H)-yl}ethyl)pyrrolidin-2-one]",10

# Continued by falling IC50, values first:
row,IC50 [nM],Structure (SMILES)
1,1020,"CCOCCN(C)C(=O)N1CCc2c(sc3ncnc(Nc4cc5cn[nH]c5cc4OC)c23)C1 [Example 78, N-(2-Ethoxyethyl)-4-[(6-methoxy-1H-indazol-5-yl)amino]-N-methyl-5,8-dihydropyrido[4′,3′:4,5]thieno[2,3-d]pyrimidine-7(6H)-carboxamide]"
2,53,"CN1CCC(C(=O)N2CCc3c(sc4ncnc(Nc5cnc6[nH]ncc6c5)c34)C2)CC1 [Example 67, (1-Methylpiperidin-4-yl)[4-(1H-pyrazolo[3,4-b]pyridin-5-ylamino)-5,8-dihydropyrido[4′,3′:4,5]thieno[2,3-d]pyrimidin-7(6H)-yl]methanone]"
3,19,"COc1cc2[nH]ncc2cc1Nc1ncnc2sc3c(c12)CCN(C(=O)N1CCCCC1)C3 [Example 70, {4-[(6-Methoxy-1H-indazol-5-yl)amino]-5,8-dihydropyrido[4′,3′:4,5]thieno[2,3-d]pyrimidin-7(6H)-yl}(piperidin-1-yl)methanone]"
4,15,"COc1cc2[nH]ncc2cc1Nc1ncnc2sc3c(c12)CCN(CCCN1CCNC1=O)C3 [Example 83, 1-(3-{4-[(6-Methoxy-1H-indazol-5-yl)amino]-5,8-dihydropyrido[4′,3′:4,5]thieno[2,3-d]pyrimidin-7(6H)-yl}propyl)imidazolidin-2-one]"
5,12,"COc1cc2[nH]ncc2cc1Nc1ncnc2sc3c(c12)CCN(CCCN1CCCC1=O)C3 [Example 86, 1-(3-{4-[(6-Methoxy-1H-indazol-5-yl)amino]-5,8-dihydropyrido[4′,3′:4,5]thieno[2,3-d]pyrimidin-7(6H)-yl}propyl)pyrrolidin-2-one]"
6,10,"COc1cc2[nH]ncc2cc1Nc1ncnc2sc3c(c12)CCN(C(=O)N1CCCC1)C3 [Example 72, {4-[(6-Methoxy-1H-indazol-5-yl)amino]-5,8-dihydropyrido[4′,3′:4,5]thieno[2,3-d]pyrimidin-7(6H)-yl}(pyrrolidin-1-yl)methanone]"
7,10,"COc1cc2[nH]ncc2cc1Nc1ncnc2sc3c(c12)CCN(C(=O)c1ccc(Cl)n1C)C3 [Example 76, (5-Chloro-1-methyl-1H-pyrrol-2-yl){4-[(6-methoxy-1H-indazol-5-yl)amino]-5,8-dihydropyrido[4′,3′:4,5]thieno[2,3-d]pyrimidin-7(6H)-yl}methanone]"
8,8,"COc1cc2[nH]ncc2cc1Nc1ncnc2sc3c(c12)CCN(CCCn1cccc1)C3 [Example 84, N-(6-Methoxy-1H-indazol-5-yl)-7-[3-(1H-pyrrol-1-yl)propyl]-5,6,7,8-tetrahydropyrido[4′,3′:4,5]thieno[2,3-d]pyrimidin-4-amine]"
9,6,"COc1cc2[nH]ncc2cc1Nc1ncnc2sc3c(c12)CCN(C(=O)c1cnc[nH]1)C3 [Example 75, 1H-Imidazol-5-yl{4-[(6-methoxy-1H-indazol-5-yl)amino]-5,8-dihydropyrido[4′,3′:4,5]thieno[2,3-d]pyrimidin-7(6H)-yl}methanone]"
10,5,"COc1nc2[nH]ncc2cc1Nc1ncnc2sc3c(c12)CCN(C(=O)N(C)C)C3 [Example 65, 4-[(6-Methoxy-1H-pyrazolo[3,4-b]pyridin-5-yl)amino]-N,N-dimethyl-5,8-dihydropyrido[4′,3′:4,5]thieno[2,3-d]pyrimidine-7(6H)-carboxamide]"
